For this experiment, the target named is Recombinant human factor D (Homo sapiens (Human), UniProt P00746). Kind of experiment: biochemical. The format is biochemical.
[1] abbreviates: Factor D inhibition data using Method 1, substrate Z-Lys-thiobenzyl, fluorescence readout, read-out: IC50.

As a reminder, the IC50 is the concentration needed to halve the response being measured.

Each structure is given as a SMILES string. Read-outs that look alike come from different tables or passages of the source.

Recombinant human factor D, sequence (P00746 26-253): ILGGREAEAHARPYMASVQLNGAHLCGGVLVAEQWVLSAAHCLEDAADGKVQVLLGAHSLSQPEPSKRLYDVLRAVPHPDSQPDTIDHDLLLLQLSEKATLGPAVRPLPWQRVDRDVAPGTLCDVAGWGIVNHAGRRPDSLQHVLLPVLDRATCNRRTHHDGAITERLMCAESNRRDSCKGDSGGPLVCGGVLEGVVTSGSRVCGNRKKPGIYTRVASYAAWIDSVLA

For the compound `C[C@H]1CCC[C@@H](NC(=O)[C@@H]2C[C@H]3C[C@H]3N2C(=O)Nc2cn(C(N)=O)c3ccccc23)C1` [Example 25, (1R,3S,5R)-2-Aza-bicyclo[3.1.0] hexane-2,3-dicarboxylic acid 2-[(1-carbamoyl-1H-indol-3-yl)-amide] 3-[((1R,3S)-3-methyl-cyclohexyl)-amide]], under “read-out: IC50”, the concentration for half-maximal inhibition (IC50) was 28 nM. With `CC(=O)c1nn(CC(=O)N2[C@H](C(=O)N[C@H]3CCCC(C)(C)C3)C[C@@]3(CO)C[C@@H]23)c2ncccc12` [Example 116, (1R,3S,5S)-2-[2-(3-Acetyl-pyrazolo[3,4-b]pyridin-1-yl)-acetyl]-5-hydroxymethyl-2-aza-bicyclo[3.1.0]hexane-3-carboxylic acid ((S)-3,3-dimethyl-cyclohexyl)-amide], under setting [1], the IC50 stood at 1600 nM. As for `CC(=O)c1nn(CC(=O)N2[C@H](C(=O)NC3CCCC4(CC4)C3)C[C@@]3(CO)C[C@@H]23)c2cnccc12` (single isomer, unassigned) [Example 113], the IC50 (IC50, Factor D inhibition data using Method 1, substrate Z-Lys-thiobenzyl, fluorescence readout) stood at 90 nM. For `CC1(C)CCC[C@@H](NC(=O)[C@@H]2C[C@H]3C[C@H]3N2C(=O)Cn2nc(C(N)=O)c3ccc(F)cc32)C1` [Example 60, 1-{2-[(1R,3S,5R)-3-((R)-3,3-Dimethyl-cyclohexylcarbamoyl)-2-aza-bicyclo[3.1.0]hex-2-yl]-2-oxo-ethyl}-6-fluoro-1H-indazole-3-carboxylic acid amide], under setting [1], the IC50 was determined as 22 nM.

On to `CO[C@H]1C[C@H](NC(=O)[C@@H]2C[C@H]3C[C@H]3N2C(=O)Cn2nc(C(N)=O)c3ccccc32)CC(C)(C)C1` [Example 106, 1-{2-[(1R,3S,5R)-3-((1R,5R)-5-Methoxy-3,3-dimethyl-cyclohexylcarbamoyl)-2-aza-bicyclo[3.1.0]hex-2-yl]-2-oxo-ethyl}-1H-indazole-3-carboxylic acid amide], for which the IC50 (read-out: IC50) turned out to be 18 nM. On to `CC(=O)c1nn(CC(=O)N2[C@H](C(=O)N[C@@H]3CCCC(C)(C)C3)C[C@@]3(CO)C[C@@H]23)c2ncccc12` [Example 115, (1R,3S,5S)-2-[2-(3-Acetyl-pyrazolo[3,4-b]pyridin-1-yl)-acetyl]-5-hydroxymethyl-2-aza-bicyclo[3.1.0]hexane-3-carboxylic acid ((R)-3,3-dimethyl-cyclohexyl)-amide], for which the IC50 under setting [1] came to 22 nM. Take `CC1(C)CCC[C@H](NC(=O)[C@@H]2C[C@H]3C[C@H]3N2C(=O)Cn2nc(C(N)=O)c3ccncc32)C1` [Example 55, 1-{2-[(1R,3S,5R)-3-((S)-3,3-Dimethyl-cyclohexylcarbamoyl)-2-aza-bicyclo[3.1.0]hex-2-yl]-2-oxo-ethyl}-1H-pyrazolo[3,4-c]pyridine-3-carboxylic acid amide]: under setting [1], the concentration for half-maximal inhibition (IC50) is 2210 nM. Regarding `CC1(C)CCC[C@@H](NC(=O)[C@@H]2[C@@H]3C[C@@H]3CN2C(=O)Cn2nc(C(N)=O)c3ccncc32)C1` [Example 86, 1-{2-[(1R,2S,5S)-2-((R)-3,3-Dimethyl-cyclohexylcarbamoyl)-3-aza-bicyclo[3.1.0]hex-3-yl]-2-oxo-ethyl}-1H-pyrazolo[3,4-c]pyridine-3-carboxylic acid amide], the half-maximal inhibitory concentration (IC50) under setting [1] amounted to 58 nM. With `CC(=O)c1nn(CC(=O)N2[C@@H]3C[C@@H]3C[C@H]2C(=O)NC2CCCC=C2F)c2ccc(OCc3ncccn3)cc12` (stereo partly drawn) [Example 38, (1R,3S,5R)-2-{2-[3-acetyl-5-(pyrimidin-2-ylmethoxy)-indazol-1-yl]-acetyl}-2-aza-bicyclo[3.1.0]hexane-3-carboxylic acid (2-fluoro-cyclohex-2-enyl)-amide], the 50% inhibitory concentration (IC50) under setting [1] was 282 nM. On the same count and under the same terms, with `NC(=O)n1cc(NC(=O)N2[C@@H]3C[C@@H]3C[C@H]2C(=O)N[C@@H]2CCC[C@H](C(F)(F)F)C2)c2ccccc21` [Example 26, (1R,3S,5R)-2-Aza-bicyclo[3.1.0]hexane-2,3-dicarboxylic acid 2-[(1-carbamoyl-1H-indol-3-yl)-amide] 3-[((1R,3S)-3-trifluoromethyl-cyclohexyl)-amide]] the figure was 26 nM. `CO[C@@H]1CCC[C@H](NC(=O)[C@@H]2C[C@H]3C[C@H]3N2C(=O)Cn2nc(C(C)=O)c3ccccc32)C1` [Example 44, (1R,3S,5R)-2-[2-(3-Acetyl-indazol-1-yl)-acetyl]-2-aza-bicyclo[3.1.0]hexane-3-carboxylic acid ((1S,3R)-3-methoxy-cyclohexyl)-amide]: where the note is “read-out: IC50”, the half-maximal inhibitory concentration (IC50) came to 1880 nM. For the compound `CO[C@H]1[C@@H](C(=O)N[C@H]2CCCC(C)(C)C2)N(C(=O)Cn2nc(C(N)=O)c3ccccc32)C[C@@H]1F` [Example 85, 1-{2-[(2S,3S,4S)-2-((S)-3,3-Dimethyl-cyclohexylcarbamoyl)-4-fluoro-3-methoxy-pyrrolidin-1-yl]-2-oxo-ethyl}-1H-indazole-3-carboxylic acid amide], under setting [1], the concentration for half-maximal inhibition (IC50) was 585 nM. For the compound `CC1(C)CCC[C@@H](NC(=O)[C@@H]2[C@@H]3C[C@@H]3CN2C(=O)Cn2nc(C(N)=O)c3ccccc32)C1` [Example 88, 1-{2-[(1R,2S,5S)-2-((R)-3,3-Dimethyl-cyclohexylcarbamoyl)-3-aza-bicyclo[3.1.0]hex-3-yl]-2-oxo-ethyl}-1H-indazole-3-carboxylic acid amide], for the setting “read-out: IC50”, the IC50 is 34 nM. Regarding `Cc1ccc2c(c1)c(C(N)=O)nn2CC(=O)N1[C@@H]2C[C@@H]2C[C@H]1C(=O)N[C@@H]1CCCC(C)(C)C1` [Example 59, 1-{2-[(1R,3S,5R)-3-((R)-3,3-Dimethyl-cyclohexylcarbamoyl)-2-aza-bicyclo[3.1.0]hex-2-yl]-2-oxo-ethyl}-5-methyl-1H-indazole-3-carboxylic acid amide], the half-inhibitory concentration (IC50) under setting [1] is 43 nM. On to `CO[C@H]1[C@@H](C(=O)N[C@@H]2CCCC(C)(C)C2)N(C(=O)Cn2nc(C(N)=O)c3ccccc32)C[C@@H]1F` [Example 84, 1-{2-[(2S,3S,4S)-2-((R)-3,3-Dimethyl-cyclohexylcarbamoyl)-4-fluoro-3-methoxy-pyrrolidin-1-yl]-2-oxo-ethyl}-1H-indazole-3-carboxylic acid amide], for which, under setting [1], the IC50 amounted to 60 nM. For `CO[C@@H]1CCC[C@@H](NC(=O)[C@@H]2C[C@H]3C[C@H]3N2C(=O)Cn2nc(C(C)=O)c3ccccc32)C1` [Example 43, (1R,3S,5R)-2-[2-(3-Acetyl-indazol-1-yl)-acetyl]-2-aza-bicyclo[3.1.0]hexane-3-carboxylic acid ((1R,3R)-3-methoxy-cyclohexyl)-amide], the IC50 (read-out: IC50) was 323 nM.

As to `CC[C@H]1CCC[C@@H](NC(=O)[C@@H]2C[C@H]3C[C@H]3N2C(=O)Nc2cn(C(N)=O)c3ccccc23)C1` [Example 23, (1R,3S,5R)-2-Aza-bicyclo [3.1.0]hexane-2,3-dicarboxylic acid 2-[(1-carbamoyl-1H-indol-3-yl)-amide] 3-[((1R,3S)-3-ethyl-cyclohexyl)-amide]], the concentration for half-maximal inhibition (IC50) under setting [1] was determined as 16 nM. Regarding `CC(=O)c1nn(CC(=O)N2[C@@H]3C[C@@H]3C[C@H]2C(=O)NC2CC(C)(C)CC(C)(C)C2)c2ncccc12` [Example 6, (1R,3S,5R)-2-[2-(3-Acetyl-pyrazolo[3,4-b]pyridin-1-yl)-acetyl]-2-aza-bicyclo[3.1.0]hexane-3-carboxylic acid (3,3,5,5-tetramethyl-cyclohexyl)-amide], the half-maximal inhibitory concentration (IC50) under setting [1] is 56 nM. For the compound `CC(=O)c1nn(CC(=O)N2[C@@H]3C[C@@H]3C[C@H]2C(=O)NC2CCOC(C)(C)C2)c2cnccc12` (stereo partly drawn) [Example 7, (1R,3S,5R)-2-[2-(3-Acetyl-pyrazolo[3,4-c]pyridin-1-yl)-acetyl]-2-aza-bicyclo[3.1.0]hexane-3-carboxylic acid (2,2-dimethyl-tetrahydro-pyran-4-yl)-amide], the IC50 under setting [1] came to 1680 nM. On the same count and under the same terms, with `CC1(C)CCC[C@@H](NC(=O)[C@@H]2C[C@H]3C[C@H]3N2C(=O)Cn2nc(C(N)=O)c3ccc(Cl)cc32)C1` [Example 62, 6-Chloro-1-{2-[(1R,3S,5R)-3-((R)-3,3-dimethyl-cyclohexylcarbamoyl)-2-aza-bicyclo[3.1.0]hex-2-yl]-2-oxo-ethyl}-1H-indazole-3-carboxylic acid amide] the figure was 24 nM. Take `CC(=O)c1nn(CC(=O)N2[C@@H]3C[C@@H]3C[C@H]2C(=O)NC2(CO)CCCCC2)c2cnccc12` [Example 10, (1R,3S,5R)-2-[2-(3-Acetyl-pyrazolo[3,4-c]pyridin-1-yl)-acetyl]-2-aza-bicyclo[3.1.0]hexane-3-carboxylic acid (1-hydroxymethyl-cyclohexyl)-amide]: for the setting “read-out: IC50”, the half-maximal inhibitory concentration (IC50) amounted to 1820 nM. Same read-out and setting: with `CC(=O)c1nn(CC(=O)N2[C@@H]3C[C@@H]3C[C@H]2C(=O)NC2CC(C)CC(C)(C)C2)c2ncccc12` (stereo partly drawn) [Example 5, (1R,3S,5R)-2-[2-(3-Acetyl-pyrazolo[3,4-b]pyridin-1-yl)-acetyl]-2-aza-bicyclo[3.1.0]hexane-3-carboxylic acid (3,3,5-trimethyl-cyclohexyl)-amide] the figure was 22 nM; with `CCc1cc2c(C(N)=O)nn(CC(=O)N3C[C@H](F)C[C@H]3C(=O)N[C@@H]3CCCC(C)(C)C3)c2cn1` [Example 81, 1-{2-[(2S,4R)-2-((R)-3,3-Dimethyl-cyclohexylcarbamoyl)-4-fluoro-pyrrolidin-1-yl]-2-oxo-ethyl}-5-ethyl-1H-pyrazolo[3,4-c]pyridine-3-carboxylic acid amide], 39 nM. `CC1(C)CCC[C@H](NC(=O)[C@@H]2C[C@H]3C[C@H]3N2C(=O)Cn2nc(C(N)=O)c3ccccc32)C1` [Example 53, 1-{2-[(1R,3S,5R)-3-((S)-3,3-Dimethyl-cyclohexylcarbamoyl)-2-aza-bicyclo[3.1.0]hex-2-yl]-2-oxo-ethyl}-1H-indazole-3-carboxylic acid amide]: the half-maximal inhibitory concentration (IC50) under setting [1] was 905 nM. Regarding `CO[C@H]1CCC[C@@H](NC(=O)[C@@H]2C[C@H]3C[C@H]3N2C(=O)Cn2nc(C(C)=O)c3cc(OCc4ncccn4)ccc32)C1` [Example 94, (1R,3S,5R)-2-{2-[3-Acetyl-5-(pyrimidin-2-ylmethoxy)-indazol-1-yl]-acetyl}2-aza-bicyclo[3.1.0]hexane-3-carboxylic acid ((1R,3S)-3-methoxy-cyclohexyl)-amide], the IC50 under setting [1] came out at 138 nM. With `CC(=O)c1nn(CC(=O)N2[C@@H]3C[C@@H]3C[C@H]2C(=O)N[C@@H]2C[C@@H]2F)c2ncccc12` [Example 4, (1R,3S,5R)-2-[2-(3-Acetyl-pyrazolo[3,4-b]pyridin-1-yl)-acetyl]-2-aza-bicyclo[3.1.0]hexane-3-carboxylic acid ((1R,2S)-2-fluoro-cyclopropyl)-amide], under setting [1], the half-maximal inhibitory concentration (IC50) came to 5130 nM.

The values above are taken from patent US9487483B2, “Complement pathway modulators and uses thereof” (priority 2012, dated 2016).
